Species on record: Rattus norvegicus
Test: DrugMatrix - Regimen: Daily Repeat
Type: toxicity, organism-based, Sprague-Dawley
Design: regimen Daily Repeat, gender Male, age 6-8 weeks
Details: in vivo, po, route oral GAVAGE, vehicle .5 % CMC; for ABSOLUTE BASOPHIL / ABSOLUTE EOSINOPHIL / ABSOLUTE LYMPHOCYTE / ABSOLUTE MONOCYTE / ABSOLUTE SEGMENTED NEUTROPHIL / BASOPHIL / EOSINOPHIL / ERYTHROCYTE COUNT / HEMATOCRIT / HEMOGLOBIN / LEUKOCYTE COUNT / LYMPHOCYTE / MEAN CORPUSCULAR HEMOGLOBIN / MEAN CORPUSCULAR HEMOGLOBIN CONCENTRATION / MEAN CORPUSCULAR VOLUME / MONOCYTE / NEUTROPHIL / NUCLEATED RED BLOOD CELLS / PLATELET COUNT: tissue Blood; for ALANINE AMINOTRANSFERASE / ALBUMIN / ALKALINE PHOSPHATASE / ASPARTATE AMINOTRANSFERASE / BLOOD UREA NITROGEN / CARBON DIOXIDE / CHLORIDE / CHOLESTEROL / CREATINE PHOSPHOKINASE / CREATININE / GLUCOSE / LACTATE DEHYDROGENASE / LIPASE / PHOSPHORUS / POTASSIUM / SODIUM / TOTAL BILIRUBIN / TOTAL PROTEIN / URIC ACID: tissue Plasma
[1] = 50 mg/kg, 120 h, dose level Low, time 5 day
[2] = 1500 mg/kg, 72 h, dose level High, time 3 day
[3] = 1500 mg/kg, 120 h, dose level High, time 5 day

SMILES: CNC(=C[N+](=O)[O-])NCCSCc1ccc(CN(C)C)o1 [RANITIDINE]
- ABSOLUTE BASOPHIL [1]: 0 CELLS/uL
- ABSOLUTE EOSINOPHIL [1]: 64.67 CELLS/uL
- ABSOLUTE LYMPHOCYTE [1]: 14230.33 CELLS/uL
- ABSOLUTE MONOCYTE [1]: 0 CELLS/uL
- ABSOLUTE SEGMENTED NEUTROPHIL [1]: 1138.33 CELLS/uL
- BASOPHIL [1]: 0%
- EOSINOPHIL [1]: 0.33%
- ERYTHROCYTE COUNT [1]: 5.36 x10E6/uL
- HEMATOCRIT [1]: 34.53%
- HEMOGLOBIN [1]: 13.67 G/DL
- LEUKOCYTE COUNT [1]: 15.43 x10E3/uL
- LYMPHOCYTE [1]: 92.67%
- MEAN CORPUSCULAR HEMOGLOBIN [1]: 25.53 pg
- MEAN CORPUSCULAR HEMOGLOBIN CONCENTRATION [1]: 39.6 G/DL
- MEAN CORPUSCULAR VOLUME [1]: 64.47 fL
- MONOCYTE [1]: 0%
- NEUTROPHIL [1]: 7%
- NUCLEATED RED BLOOD CELLS [1]: 0 /100WBC
- PLATELET COUNT [1]: 1360.67 x10E3/uL
- ALANINE AMINOTRANSFERASE [1]: 42 u/L
- ALBUMIN [1]: 4.17 G/DL
- ALKALINE PHOSPHATASE [1]: 395 u/L
- ASPARTATE AMINOTRANSFERASE [1]: 70.33 u/L
- BLOOD UREA NITROGEN [1]: 17 mg/dL
- CARBON DIOXIDE [1]: 28 mmol/L
- CHLORIDE [1]: 102 MEQ/L
- CHOLESTEROL [1]: 50.33 mg/dL
- CREATINE PHOSPHOKINASE [1]: 245.67 u/L
- CREATININE [1]: 0.19 mg/dL
- GLUCOSE [1]: 148 mg/dL
- LACTATE DEHYDROGENASE [1]: 98 u/L
- LIPASE [1]: 8.67 u/L
- PHOSPHORUS [1]: 12.1 mg/dL
- POTASSIUM [1]: 6.46 MEQ/L
- SODIUM [1]: 145.6 MEQ/L
- TOTAL BILIRUBIN [1]: 0.2 mg/dL
- TOTAL PROTEIN [1]: 6 G/DL
- URIC ACID [1]: 1.33 mg/dL
- ABSOLUTE BASOPHIL [2]: 0 CELLS/uL
- ABSOLUTE EOSINOPHIL [2]: 49.67 CELLS/uL
- ABSOLUTE LYMPHOCYTE [2]: 15225.67 CELLS/uL
- ABSOLUTE MONOCYTE [2]: 162.67 CELLS/uL
- ABSOLUTE SEGMENTED NEUTROPHIL [2]: 1162 CELLS/uL
- BASOPHIL [2]: 0%
- EOSINOPHIL [2]: 0.33%
- ERYTHROCYTE COUNT [2]: 5.61 x10E6/uL
- HEMATOCRIT [2]: 35.4%
- HEMOGLOBIN [2]: 14 G/DL
- LEUKOCYTE COUNT [2]: 16.6 x10E3/uL
- LYMPHOCYTE [2]: 91.67%
- MEAN CORPUSCULAR HEMOGLOBIN [2]: 24.97 pg
- MEAN CORPUSCULAR HEMOGLOBIN CONCENTRATION [2]: 39.57 G/DL
- MEAN CORPUSCULAR VOLUME [2]: 63.03 fL
- MONOCYTE [2]: 1%
- NEUTROPHIL [2]: 7%
- NUCLEATED RED BLOOD CELLS [2]: 0.33 /100WBC
- PLATELET COUNT [2]: 1234.33 x10E3/uL
- ALANINE AMINOTRANSFERASE [2]: 53 u/L
- ALBUMIN [2]: 4.17 G/DL
- ALKALINE PHOSPHATASE [2]: 349.67 u/L
- ASPARTATE AMINOTRANSFERASE [2]: 86.67 u/L
- BLOOD UREA NITROGEN [2]: 14.67 mg/dL
- CARBON DIOXIDE [2]: 31 mmol/L
- CHLORIDE [2]: 101.33 MEQ/L
- CHOLESTEROL [2]: 68 mg/dL
- CREATINE PHOSPHOKINASE [2]: 268.67 u/L
- CREATININE [2]: 0.18 mg/dL
- GLUCOSE [2]: 146 mg/dL
- LACTATE DEHYDROGENASE [2]: 319.67 u/L
- LIPASE [2]: 9.33 u/L
- PHOSPHORUS [2]: 12.6 mg/dL
- POTASSIUM [2]: 7.13 MEQ/L
- SODIUM [2]: 145.5 MEQ/L
- TOTAL BILIRUBIN [2]: 0.17 mg/dL
- TOTAL PROTEIN [2]: 5.6 G/DL
- URIC ACID [2]: 1.37 mg/dL
- ABSOLUTE BASOPHIL [3]: 0 CELLS/uL
- ABSOLUTE EOSINOPHIL [3]: 61.33 CELLS/uL
- ABSOLUTE LYMPHOCYTE [3]: 16689.33 CELLS/uL
- ABSOLUTE MONOCYTE [3]: 42 CELLS/uL
- ABSOLUTE SEGMENTED NEUTROPHIL [3]: 1274 CELLS/uL
- BASOPHIL [3]: 0%
- EOSINOPHIL [3]: 0.33%
- ERYTHROCYTE COUNT [3]: 6.18 x10E6/uL
- HEMATOCRIT [3]: 38.9%
- HEMOGLOBIN [3]: 15.3 G/DL
- LEUKOCYTE COUNT [3]: 18.07 x10E3/uL
- LYMPHOCYTE [3]: 92.67%
- MEAN CORPUSCULAR HEMOGLOBIN [3]: 24.8 pg
- MEAN CORPUSCULAR HEMOGLOBIN CONCENTRATION [3]: 39.33 G/DL
- MEAN CORPUSCULAR VOLUME [3]: 63.03 fL
- MONOCYTE [3]: 0.33%
- NEUTROPHIL [3]: 6.67%
- NUCLEATED RED BLOOD CELLS [3]: 0 /100WBC
- PLATELET COUNT [3]: 1282 x10E3/uL
- ALANINE AMINOTRANSFERASE [3]: 57.33 u/L
- ALBUMIN [3]: 4.27 G/DL
- ALKALINE PHOSPHATASE [3]: 392.67 u/L
- ASPARTATE AMINOTRANSFERASE [3]: 93.67 u/L
- BLOOD UREA NITROGEN [3]: 15.67 mg/dL
- CARBON DIOXIDE [3]: 21.33 mmol/L
- CHLORIDE [3]: 100.33 MEQ/L
- CHOLESTEROL [3]: 69.67 mg/dL
- CREATINE PHOSPHOKINASE [3]: 330.33 u/L
- CREATININE [3]: 0.23 mg/dL
- GLUCOSE [3]: 154 mg/dL
- LACTATE DEHYDROGENASE [3]: 426.67 u/L
- LIPASE [3]: 10 u/L
- PHOSPHORUS [3]: 12.5 mg/dL
- POTASSIUM [3]: 6.43 MEQ/L
- SODIUM [3]: 144.53 MEQ/L
- TOTAL BILIRUBIN [3]: 0.23 mg/dL
- TOTAL PROTEIN [3]: 6.27 G/DL
- URIC ACID [3]: 2.73 mg/dL
